The values below come from patent US10287301B2 (Achillion Pharmaceuticals, Inc., priority 2015, dated 2019).

Read-outs that look alike come from different tables or passages of the source. Some results are limits rather than exact numbers.

In general, IC50 refers to the concentration needed to halve the response being measured.

This assay deals with Human Factor D (Homo sapiens (Human), UniProt P00746). The assay is described as follows: Human Factor D Assay. The assay is classed as biochemical. On the procedure:
Human Factor D (purified from human serum, Complement Technology, Inc.) at 80 nM final concentration was incubated with test compound at various concentrations for 5 minutes at room temperature in 50 mM Tris, 1M NaCl, pH 7.5. A synthetic substrate Z-L-Lys-SBzl and DTNB (Ellman's reagent) are added to final concentrations of 100 μM each. […] IC50 values are calculated by nonlinear regression of complement Factor D reaction rates as a function of test compound concentration.

[1] abbreviates: Human Factor D assay of Example 8, Table 2, read-out: IC50.
[2] abbreviates: Human Factor D, Table 3, read-out: IC50.
[3] abbreviates: Human Factor D 80 nM, substrate Z-L-Lys-SBzl, read-out: IC50.
Setting [4] is: Table 3, Human Factor D 80 nM, substrate Z-L-Lys-SBzl, read-out: IC50 (Stars).

Chain of Human Factor D (P00746 26-253): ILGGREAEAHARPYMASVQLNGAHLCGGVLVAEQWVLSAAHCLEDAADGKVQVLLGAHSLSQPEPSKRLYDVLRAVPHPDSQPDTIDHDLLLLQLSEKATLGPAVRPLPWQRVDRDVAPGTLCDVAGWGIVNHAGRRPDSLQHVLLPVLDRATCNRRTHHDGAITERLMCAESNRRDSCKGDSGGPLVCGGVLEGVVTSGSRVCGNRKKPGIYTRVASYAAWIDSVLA

For the compound `COc1cccc(NC(=O)[C@@H]2C[C@@H](F)CN2C(=O)Cn2nc(C(C)=O)c3cc(-c4cnc5cc(C)nn5c4)ccc32)c1F` [Compound 275, (2S,4R)-1-(2-(3-acetyl-5-(2-methylpyrazolo[1,5-a]pyrimidin-6-yl)-1H-indazol-1-yl)acetyl)-4-fluoro-N-(2-fluoro-3-methoxyphenyl) pyrrolidine-2-carboxamide], the half-maximal inhibitory concentration (IC50) under setting [1] was less than 1000 nM.
`CC(=O)N1CC=C(c2cn(CC(=O)N3C[C@H](F)C[C@H]3C(=O)Nc3cccc(Br)n3)nc2C(N)=O)CC1` [Compound 727, 4-(1-acetyl-1,2,3,6-Tetrahydropyridin-4-yl)-1-(2-((2S,4R)-2-((6-bromopyridin-2-yl)carbamoyl)-4-fluoropyrrolidin-1-yl)-2-oxoethyl)-1H-pyrazole-3-carboxamide]: the IC50 under setting [2] is more than 10000 nM.
Still for that read-out and setting: the result for `CC(=O)c1nn(CC(=O)N2C[C@H](F)C[C@@H]2C(=O)Nc2nc(Br)ccc2C(=O)O)c2ccc(-c3cnc(C)nc3)cc12` [Compound 648, 2-((2R,4R)-1-(2-(3-Acetyl-5-(2-methylpyrimidin-5-yl)-1H-indazol-1-yl)acetyl)-4-fluoropyrrolidine-2-carboxamido)-6-bromonicotinic acid] reads more than 10000 nM.
On the same count and under the same terms, the same measure for `CC(=O)c1nn(CC(=O)N2[C@H](C(=O)Nc3cncc(C(F)(F)F)n3)C[C@@]3(C)C[C@@H]23)c2ccc(-c3cnc(C)nc3)cc12` [Compound 640, (1R,3S,5R)-2-(2-(3-acetyl-5-(2-methylpyrimidin-5-yl)-1H-indazol-1-yl)acetyl)-5-methyl-N-(6-(trifluoromethyl)pyrazin-2-yl)-2-azabicyclo[3.1.0] hexane-3-carboxamide]: less than 1000 nM.
For the compound `Cc1nc2sccn2c1-c1csc(NC(=O)[C@@H]2C[C@@H](F)CN2C(=O)Cn2nc(C(N)=O)c3cc(-c4ccnnc4)ccc32)n1` [Compound 58, 1-(2-((2S,4R)-4-fluoro-2-(4-(6-methylimidazo[2,1-b]thiazol-5-yl)thiazol-2-ylcarbamoyl)pyrrolidin-1-yl)-2-oxoethyl)-5-(pyridazin-4-yl)-1H-indazole-3-carboxamide], under setting [3], the half-maximal inhibitory concentration (IC50) is more than 10000 nM.
Regarding `NC(=O)c1nn(CC(=O)N2C[C@H](F)C[C@H]2C(=O)Nc2cccc(-c3ccccc3Cl)c2F)c2cnc(-c3cncnc3)cc12` [Compound 19, 1-(2-((2S,4R)-2-((2′-Chloro-2-fluoro-[1,1′-biphenyl]-3-yl)carbamoyl)-4-fluoropyrrolidin-1-yl)-2-oxoethyl)-5-(pyrimidin-5-yl)-1H-pyrazolo[3,4-c]pyridine-3-carboxamide], under setting [3], the IC50 was less than 1000 nM.
`NC(=O)c1nn(CC(=O)N2C[C@H](F)C[C@H]2C(=O)Nc2ncc(Br)cn2)c2ccc(-c3ccnnc3)cc12` [Compound 109, 1-(2-((2S,4R)-2-(5-bromopyrimidin-2-ylcarbamoyl)-4-fluoropyrrolidin-1-yl)-2-oxoethyl)-5-(pyridazin-4-yl)-1H-indazole-3-carboxamide]: the IC50 is 1000 to 10000 nM.
With `NC(=O)c1nn(CC(=O)N2C[C@H](F)C[C@H]2C(=O)Nc2cccc(Cl)c2-n2cncn2)c2ccc(-c3ccnnc3)cc12` [Compound 96, 1-(2-((2S,4R)-2-(3-chloro-2-(1H-1,2,4-triazol-1-yl)phenylcarbamoyl)-4-fluoropyrrolidin-1-yl)-2-oxoethyl)-5-(pyridazin-4-yl)-1H-indazole-3-carboxamide], under setting [3], the half-maximal inhibitory concentration (IC50) is more than 10000 nM.
On the same count and under the same terms, the result for `NC(=O)c1nn(CC(=O)N2C[C@H](F)C[C@H]2C(=O)N[C@H]2CCCC[C@@H]2OCc2ccccc2)c2ccc(-c3ccnnc3)cc12` [Compound 78, 1-(2-((2S,4R)-2-((1S,2S)-2-(benzyloxy)cyclohexyl-carbamoyl)-4-fluoropyrrolidin-1-yl)-2-oxoethyl)-5-(pyridazin-4-yl)-1H-indazole-3-carboxamide] reads more than 10000 nM.
For `CC(=O)c1nn(CC(=O)N2[C@H](C(=O)Nc3cccc(Br)n3)C[C@@]3(C)C[C@@H]23)c2ccc(-c3cnc(C)nc3)cc12` [Compound 372, (1R,3S,5R)-2-(2-(3-Acetyl-5-(2-methylpyrimidin-5-yl)-1H-indazol-1-yl)acetyl)-N-(6-bromopyridin-2-yl)-5-methyl-2-azabicyclo[3.1.0]hexane-3-carboxamide], under setting [4], the IC50 was less than 1000 nM.
Turning to `NC(=O)c1nn(CC(=O)N2C[C@H](F)C[C@H]2C(=O)Nc2cccc(Br)n2)cc1-c1cnn(C2CC2)c1` [Compound 726, 1-(2-((2S,4R)-2-((6-Bromopyridin-2-yl)carbamoyl)-4-fluoropyrrolidin-1-yl)-2-oxoethyl)-1′-cyclopropyl-1H,1′H-[4,4′-bipyrazole]-3-carboxamide], the IC50 under setting [2] was more than 10000 nM.
Take `CC(=O)c1nn(CC(=O)N2C[C@H](F)C[C@H]2C(=O)Nc2cccc(C(F)(F)F)n2)c2ccc(-c3cnc4cc(C)nn4c3)cc12` [Compound 264, (2S,4R)-1-(2-(3-acetyl-5-(2-methylpyrazolo[1,5-a]pyrimidin-6-yl)-1H-indazol-1-yl)acetyl)-4-fluoro-N-(6-(trifluoromethyl)pyridin-2-yl)pyrrolidine-2-carboxamide]: the IC50 under setting [1] was less than 1000 nM.
For `CC(=O)c1nn(CC(=O)N2C3CC[C@@H](C3)[C@H]2C(=O)Nc2nc(Br)ccc2C)c2ccc(-c3cnc(C)nc3)cc12` [Compound 617, (3S,4S)-2-(2-(3-Acetyl-5-(2-methylpyrimidin-5-yl)-1H-indazol-1-yl)acetyl)-N-(6-bromo-3-methylpyridin-2-yl)-2-azabicyclo[2.2.1]heptane-3-carboxamide], the IC50 under setting [2] is less than 1000 nM.
Regarding `CC(=O)c1nn(CC(=O)N2C[C@H](F)C[C@H]2C(=O)Nc2nccc(-c3sccc3Cl)n2)c2ccc(-c3cnc(C)nc3)cc12` [Compound 228, (2S,4R)-1-(2-(3-acetyl-5-(2-methylpyrimidin-5-yl)-1H-indazol-1-yl)acetyl)-N-(4-(3-chlorothiophen-2-yl)pyrimidin-2-yl)-4-fluoropyrrolidine-2-carboxamide], under setting [1], the IC50 was less than 1000 nM.
`COc1cc(Br)nc(NC(=O)[C@@H]2C[C@H]3C[C@H]3N2C(=O)Cn2nc(C(C)=O)c3cc(-c4cnc(OC)nc4)ccc32)c1` [Compound 433, (1R,3S,5R)-2-(2-(3-Acetyl-5-(2-methoxypyrimidin-5-yl)-1H-indazol-1-yl)acetyl)-N-(6-bromo-4-methoxypyridin-2-yl)-2-azabicyclo[3.1.0]hexane-3-carboxamide]: the IC50 under setting [4] is less than 1000 nM.
As to `CC(=O)c1nn(CC(=O)N2CCOC[C@H]2C(=O)Nc2cccc(Br)n2)c2ccc(-c3cnc(C)nc3)cc12` [Compound 749, (S)-4-(2-(3-acetyl-5-(2-methylpyrimidin-5-yl)-1H-indazol-1-yl)acetyl)-N-(6-bromopyridin-2-yl)morpholine-3-carboxamide], the IC50 under setting [2] is less than 1000 nM.
`CC(=O)c1cn(CC(=O)N2C[C@H](F)C[C@H]2C(=O)Nc2ccccc2-c2nc3ccccc3s2)c2ccc(-c3ccnnc3)cc12` [Compound 34, (2S,4R)-1-(2-(3-acetyl-5-(pyridazin-4-yl)-1H-indol-1-yl)acetyl)-N-(2-(benzo[d]thiazol-2-yl)phenyl)-4-fluoropyrrolidine-2-carboxamide] gave an IC50 of more than 10000 nM.
In the case of `Cc1cccc(NC(=O)[C@@H]2C[C@@H](F)CN2C(=O)Cn2nc(C(N)=O)c3sc(-c4cnc(C)nc4)nc32)n1` [Compound 715, 1-(2-((2S,4R)-4-Fluoro-2-(6-methylpyridin-2-ylcarbamoyl)pyrrolidin-1-yl)-2-oxoethyl)-5-(2-methylpyrimidin-5-yl)-1H-pyrazolo[3,4-d]thiazole-3-carboxamide], the IC50 under setting [2] is more than 10000 nM.
`CNc1ncc(-c2ccc3c(c2)c(C(C)=O)nn3CC(=O)N2C[C@H](F)C[C@H]2C(=O)Nc2cccc(Br)n2)cn1` [Compound 390, (2S,4R)-1-(2-(3-Acetyl-5-(2-(methylamino)pyrimidin-5-yl)-1H-indazol-1-yl)acetyl)-N-(6-bromopyridin-2-yl)-4-fluoropyrrolidine-2-carboxamide]: the IC50 under setting [4] was less than 1000 nM.
Turning to `CC(=O)c1nn(CC(=O)N2[C@@H]3C[C@@H]3C[C@H]2C(=O)Nc2cccc(OC(F)(F)F)n2)c2ccc(-c3cnc4cc(C)nn4c3)cc12` [Compound 670, (1R,3S,5R)-2-(2-(3-Acetyl-5-(2-methylpyrazolo[1,5-a]pyrimidin-6-yl)-1H-indazol-1-yl)acetyl)-N-(6-(trifluoromethoxy)pyridin-2-yl)-2-azabicyclo[3.1.0]hexane-3-carboxamide], under setting [2], the IC50 is less than 1000 nM.
As for `CC(=O)c1nn(CC(=O)N2[C@H](C(=O)Nc3cccc(OC(F)(F)F)n3)C[C@@]3(C)C[C@@H]23)c2ccc(-c3cnc(C)nc3)cc12` [Compound 624, (1R,3S,5R)-2-(2-(3-acetyl-5-(2-methylpyrimidin-5-yl)-1H-indazol-1-yl)acetyl)-5-methyl-N-(6-(trifluoromethoxy)pyridin-2-yl)-2-azabicyclo[3.1.0] hexane-3-carboxamide], under setting [2], the IC50 was less than 1000 nM.
Consider `CC(=O)c1cn(CC(=O)N2C[C@H](F)C[C@H]2C(=O)Nc2cccc(-c3ccccc3Cl)c2F)c2ccc(-c3cnc(NCC(F)(F)F)nc3)cc12` [Compound 193, (2S,4R)-1-(2-(3-acetyl-5-(2-(2,2,2-trifluoroethylamino)pyrimidin-5-yl)-1H-indol-1-yl)acetyl)-N-(2′-chloro-2-fluorobiphenyl-3-yl)-4-fluoropyrrolidine-2-carboxamide], for which the IC50 under setting [1] is less than 1000 nM.
Same read-out and setting: the same measure for `CC(=O)c1nn(CC(=O)N2C[C@H](F)C[C@H]2C(=O)Nc2cccc(Br)n2)c2ccc(-c3nc4c(s3)CCCC4)cc12` [Compound 297]: more than 10000 nM.
On to `CC(=O)c1nn(CC(=O)N2C[C@H](C)C[C@H]2C(=O)Nc2nc(Br)ccc2C)c2ccc(-c3cnc(C)nc3)cc12` [Compound 644, (2S,4R)-1-(2-(3-Acetyl-5-(2-methylpyrimidin-5-yl)-1H-indazol-1-yl)acetyl)-N-(6-bromo-3-methylpyridin-2-yl)-4-methylpyrrolidine-2-carboxamide], for which, under setting [2], the IC50 is less than 1000 nM.
